Experimental data from PubChem BioAssay AID192 (DTP/NCI, 2004).
Several values for one entry are separate records, joined by “and”; a condition that tells them apart may be missing. Equal entries are not always repeated. Toxic doses and inconclusive results are not listed.

Tested on: BDF1 mice, B16 melanoma ip, median survival T/C
Assay: NCI In Vivo Anticancer Drug Screen. Data for tumor model B16 Melanoma (intraperitoneal) in B6D2F1 (BDF1) mice
Settings: endpoint: median survival time, higher = longer survival
In short: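 Antitumor activity is assessed in mice bearing a transplanted tumor, with survival or tumor size compared against vehicle-dosed controls and expressed as T/C.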

[1] = dose: 6.25 mg/kg/injection, schedule: Q01DX009 (ip), vehicle: saline with Tween-80
[2] = dose: 12.5 mg/kg/injection, schedule: Q01DX009 (ip), vehicle: saline with Tween-80
[3] = dose: 25.0 mg/kg/injection, schedule: Q01DX009 (ip), vehicle: saline with Tween-80
[4] = dose: 100.0 mg/kg/injection, schedule: Q01DX009 (ip), vehicle: saline with Tween-80
[5] = dose: 200.0 mg/kg/injection, schedule: Q01DX009 (ip), vehicle: saline with Tween-80
[6] = dose: 25.0 mg/kg/injection, schedule: Q01DX009 (ip), vehicle: Klucel (hydroxypropylcellulose) (HPC)
[7] = dose: 50.0 mg/kg/injection, schedule: Q01DX009 (ip), vehicle: Klucel (hydroxypropylcellulose) (HPC)
[8] = dose: 100.0 mg/kg/injection, schedule: Q01DX009 (ip), vehicle: Klucel (hydroxypropylcellulose) (HPC)
[9] = dose: 200.0 mg/kg/injection, schedule: Q01DX009 (ip), vehicle: Klucel (hydroxypropylcellulose) (HPC)
[10] = dose: 50.0 mg/kg/injection, schedule: Q01DX009 (ip), vehicle: saline with Tween-80
[11] = dose: 25.0 mg/kg/injection, schedule: Q01DX009 (ip), vehicle: saline
[12] = dose: 50.0 mg/kg/injection, schedule: Q01DX009 (ip), vehicle: saline
[13] = dose: 100.0 mg/kg/injection, schedule: Q01DX009 (ip), vehicle: saline
[14] = dose: 400.0 mg/kg/injection, schedule: Q01DX009 (ip), vehicle: Klucel (hydroxypropylcellulose) (HPC)
[15] = dose: 12.5 mg/kg/injection, schedule: Q01DX009 (ip), vehicle: saline
[16] = dose: 200.0 mg/kg/injection, schedule: Q01DX009 (ip), vehicle: saline
[17] = dose: 1.25 mg/kg/injection, schedule: Q01DX009 (ip), vehicle: saline with Tween-80
[18] = dose: 2.5 mg/kg/injection, schedule: Q01DX009 (ip), vehicle: saline with Tween-80
[19] = dose: 5.0 mg/kg/injection, schedule: Q01DX009 (ip), vehicle: saline with Tween-80
[20] = dose: 400.0 mg/kg/injection, schedule: Q01DX009 (ip), vehicle: saline

O=C1CC(=O)C(Br)=C1Br
T/C (dose: 0.08 mg/kg/injection, schedule: Q01DX009 (ip), vehicle: saline with Tween-80): 97 % of control
T/C (dose: 0.15 mg/kg/injection, schedule: Q01DX009 (ip), vehicle: saline with Tween-80): 93 % of control
T/C (dose: 0.3 mg/kg/injection, schedule: Q01DX009 (ip), vehicle: saline with Tween-80): 95 % of control
T/C (dose: 0.37 mg/kg/injection, schedule: Q04DX003 (ip), vehicle: saline with Tween-80): 94 % of control
T/C (dose: 75.0 micrograms/kg/injection, schedule: Q04DX003 (ip), vehicle: saline with Tween-80): 92 % of control
T/C (dose: 150.0 micrograms/kg/injection, schedule: Q04DX003 (ip), vehicle: saline with Tween-80): 92 % of control
T/C (dose: 300.0 micrograms/kg/injection, schedule: Q04DX003 (ip), vehicle: saline with Tween-80): 91 % of control

Cc1ccc(NC(=O)CCl)cc1C
T/C [1]: 102 % of control
T/C [2]: 100 % of control
T/C [3]: 95 % of control
T/C [4]: 95 % of control
T/C [5]: 95 % of control

ClCc1c2ccccc2c(CCl)c2ccccc12
T/C (dose: 0.75 mg/kg/injection, schedule: Q01DX009 (ip), vehicle: Klucel (hydroxypropylcellulose) (HPC)): 114 % of control
T/C (dose: 1.5 mg/kg/injection, schedule: Q01DX009 (ip), vehicle: Klucel (hydroxypropylcellulose) (HPC)): 119 % of control

O=C(Nc1cccc(C(F)(F)F)c1)Nc1nccs1
T/C [6]: 93 % of control
T/C [7]: 95 % of control
T/C [8]: 100 % of control
T/C [9]: 101 % of control

CC(=O)c1ccccc1C
T/C [2]: 102 % of control
T/C [3]: 108 % of control
T/C [10]: 92 % of control and 123 % of control

O=C1c2ccccc2C(=O)c2c(NCCNCCO)ccc(O)c21
T/C (dose: 2.5 mg/kg/injection, schedule: Q01DX009 (ip), vehicle: suspension in saline): 110 % of control
T/C (dose: 5.0 mg/kg/injection, schedule: Q01DX009 (ip), vehicle: suspension in saline): 119 % of control
T/C (dose: 10.0 mg/kg/injection, schedule: Q01DX009 (ip), vehicle: suspension in saline): 119 % of control
T/C (dose: 20.0 mg/kg/injection, schedule: Q01DX009 (ip), vehicle: suspension in saline): 171 % of control
T/C (dose: 80.0 mg/kg/injection, schedule: Q01DX009 (ip), vehicle: suspension in saline): 181 % of control

C/C=C/CC(C/C=C/C)C1CC[N-]CC1.C/C=C/CC(C/C=C/C)C1CC[N-]CC1.[Cl][Pt+2]([Cl])([Cl])[Cl]
T/C (dose: 1.56 mg/kg/injection, schedule: Q01DX009 (ip), vehicle: other): 97 % of control
T/C (dose: 3.13 mg/kg/injection, schedule: Q01DX009 (ip), vehicle: other): 97 % of control
T/C (dose: 6.25 mg/kg/injection, schedule: Q01DX009 (ip), vehicle: other): 100 % of control
T/C (dose: 12.5 mg/kg/injection, schedule: Q01DX009 (ip), vehicle: other): 97 % of control
T/C (dose: 25.0 mg/kg/injection, schedule: Q01DX009 (ip), vehicle: other): 96 % of control

OC1CCC(O)C1(Cl)Cl (centres undefined)
T/C [11]: 98 % of control
T/C [12]: 109 % of control
T/C [13]: 91 % of control

Nc1ccccc1SC1CC(=O)N(c2ccccc2Cl)C1=O (centres undefined)
T/C [8]: 94 % of control
T/C [9]: 86 % of control

Cc1ccc([N+](=O)[O-])c(C)c1
T/C [8]: 94 % of control
T/C [9]: 102 % of control
T/C [14]: 94 % of control

COCCNCCOC
T/C (dose: 160.0 mg/kg/injection, schedule: Q01DX009 (ip), vehicle: saline): 118 % of control
T/C (dose: 370.0 mg/kg/injection, schedule: Q01DX009 (ip), vehicle: saline): 121 % of control

Cc1cnc2c(=O)[nH]c(=O)[nH]c2n1
T/C [8]: 90 % of control
T/C [14]: 93 % of control

CN(C)C1CCN(Cc2ccccc2)CC1
T/C (dose: 50.0 mg/kg/injection, schedule: Q04DX003 (ip), vehicle: saline): 100 % of control
T/C (dose: 100.0 mg/kg/injection, schedule: Q04DX003 (ip), vehicle: saline): 90 % of control
T/C (dose: 200.0 mg/kg/injection, schedule: Q04DX003 (ip), vehicle: saline): 93 % of control

CCN(c1ccccc1C)S(=O)(=O)c1ccccc1
T/C [3]: 100 % of control
T/C [10]: 101 % of control
T/C [8]: 96 % of control
T/C [4]: 96 % of control

N#Cc1cccnc1.NCCNCCN.[Br-].[Pt+4]
T/C [15]: 100 % of control
T/C [11]: 94 % of control
T/C [12]: 99 % of control
T/C [13]: 99 % of control
T/C [16]: 89 % of control

O=C1C=C[C@H](O)[C@@]2(CO)O[C@@H]12
T/C [17]: 101 % of control
T/C [18]: 101 % of control
T/C [19]: 122 % of control
T/C (dose: 10.0 mg/kg/injection, schedule: Q01DX009 (ip), vehicle: saline with Tween-80): 104 % of control

COC(=O)CC(=O)c1ccc(C)cc1
T/C [8]: 103 % of control
T/C [9]: 95 % of control

COc1ccc2nonc2c1
T/C [3]: 107 % of control
T/C [10]: 95 % of control
T/C [4]: 91 % of control
T/C [5]: 101 % of control

O=C(O)CC1(CC(=O)O)CCCCC1
T/C [10]: 100 % of control
T/C [4]: 98 % of control

Cn1c(CC#N)c(C[N+](C)(C)C)c2ccccc21
T/C [17]: 104 % of control
T/C [18]: 86 % of control
T/C [19]: 100 % of control

COc1ccc2c(c1Oc1ccc([N+](=O)[O-])cc1[N+](=O)[O-])C13CCN(C)C(C2)C1CCC1(C3)OCCO1 (centres undefined)
T/C [8]: 111 % of control
T/C [9]: 86 % of control

OCC(O)c1ccccn1 (centres undefined)
T/C [13]: 123 % of control
T/C [20]: 123 % of control

Oc1cc2c(cc1O)[C@H]1c3ccc(O)c(O)c3OC[C@@]1(O)C2
T/C [11]: 100 % of control
T/C [12]: 102 % of control
T/C [13]: 103 % of control
T/C [16]: 108 % of control
T/C [20]: 103 % of control

O=C(Oc1ccc(Cl)cc1Cl)c1ccc([N+](=O)[O-])cc1
T/C [6]: 87 % of control
T/C [8]: 86 % of control

O=[N+]([O-])c1ccc(CSc2ncnc3c2ncn3C2OC(CO)C(O)C2O)cc1 (centres undefined)
T/C (dose: 3.13 mg/kg/injection, schedule: Q01DX009 (ip), vehicle: saline with Tween-80): 90 % of control
T/C [1]: 90 % of control
T/C [2]: 90 % of control
T/C [3]: 86 % of control
T/C [10]: 86 % of control
T/C [4]: 79 % of control
T/C [5]: 75 % of control

S=c1[nH]c2ccccc2s1
T/C (dose: 25.0 mg/kg/injection, schedule: Q01DX009 (ip), vehicle: carboxymethylcellulose (CMC)): 105 % of control
T/C (dose: 50.0 mg/kg/injection, schedule: Q01DX009 (ip), vehicle: carboxymethylcellulose (CMC)): 103 % of control
T/C (dose: 100.0 mg/kg/injection, schedule: Q01DX009 (ip), vehicle: carboxymethylcellulose (CMC)): 109 % of control

Cc1c(Cl)cccc1N=Cc1ccccc1O
T/C [7]: 106 % of control
T/C [8]: 108 % of control
T/C [9]: 97 % of control

C/C=C(/C(=O)NC(N)=O)C(C)C
T/C [6]: 100 % of control
T/C [7]: 105 % of control
T/C [8]: 105 % of control
T/C [9]: 94 % of control
T/C [14]: 97 % of control

CC(OCc1ccccc1)C(NC(=O)OC(C)(C)C)C(=O)O (centres undefined)
T/C [1]: 97 % of control
T/C [2]: 98 % of control
T/C [3]: 102 % of control
T/C [10]: 88 % of control and 95 % of control

CC(=O)OC(C)C(=O)C(Cl)(Cl)Cl (centres undefined)
T/C [8]: 96 % of control
T/C [9]: 107 % of control
T/C [14]: 107 % of control

CCCCCCCCCCCCCCCCCCOCC(COP(=O)([O-])OCC[N+](C)(C)C)OC (centres undefined)
T/C (dose: 3.12 mg/kg/injection, schedule: Q01DX009 (ip), vehicle: saline): 91 % of control
T/C (dose: 6.25 mg/kg/injection, schedule: Q01DX009 (ip), vehicle: saline): 95 % of control
T/C [15]: 92 % of control
T/C [11]: 87 % of control

O=C1c2ccccc2C(=O)c2c(NCCN3CCNCC3)ccc(NCCN3CCNCC3)c21
T/C (dose: 8.0 mg/kg/injection, schedule: Q01DX009 (ip), vehicle: acid diluted with saline): 106 % of control
T/C (dose: 16.0 mg/kg/injection, schedule: Q01DX009 (ip), vehicle: acid diluted with saline): 104 % of control
T/C (dose: 32.0 mg/kg/injection, schedule: Q01DX009 (ip), vehicle: acid diluted with saline): 104 % of control
T/C (dose: 64.0 mg/kg/injection, schedule: Q01DX009 (ip), vehicle: acid diluted with saline): 96 % of control
